What was measured:
[1] = test system: MEK; experiment: Cellular Assay for Measuring MEK Inhibition (inhibition of ERK phosphorylation in C26 cells, Western blot); type: cell-based, murine; settings: for IC50: inhibition of ERK phosphorylation in murine colon 26 (C26) carcinoma cells, determined graphically from dose response curve
Procedure, shortened: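 Exponentially growing murine colon 26 (C26) carcinoma cells treated with varying compound concentrations at 37° C, then lysed. Western blot with antibody to dually phosphorylated ERK1/ERK2; blots stripped and re-probed for total ERK1/ERK2.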

[2] = ERK phosphorylation in C26 cells

Row | SMILES | melting point [°C] | IC50 [1] [nM] | % Inhibition @ 0.1 μM [1, 2] [%] | % Inhibition @ 1 μM [1, 2] [%] | also measured
1 | O=C(NOCC(O)CO)c1ccc(F)cc1Nc1ccc(I)cc1F (centres unmarked) [Example 42, N-(2,3-Dihydroxy-propoxy)-4-fluoro-2-(2-fluoro-4-iodo-phenylamino)-benzamide] | 173 to 175 | 2.7 | – | – | –
2 | CC(C)(O)CONC(=O)c1cc(Br)c(F)c(F)c1Nc1ccc(I)cc1F [Example 178, 5-Bromo-3,4-difluoro-2-(2-fluoro-4-iodo-phenylamino)-N-(2-hydroxy-2-methyl-propoxy)-benzamide] | – | – | 61.8 | 94.9 | –
3 | COCCONC(=O)c1cc(Cl)c(F)c(F)c1Nc1ccc(I)cc1F [Example 142, 5-Chloro-3,4-difluoro-2-(2-fluoro-4-iodo-phenylamino)-N-(2-methoxy-ethoxy)-benzamide] | – | – | 31 | 91.4 | –
4 | CC(O)CONC(=O)c1ccc(F)c(F)c1Nc1ccc(Cl)cc1F (centres unmarked) [Example 168, 2-(4-Chloro-2-fluoro-phenylamino)-3,4-difluoro-N-(2-hydroxy-propoxy)-benzamide] | – | – | 48.8 | 89.5 | –
5 | COCC(O)CONC(=O)c1cc(Cl)c(F)c(F)c1Nc1ccc(F)cc1F (centres unmarked) [Example 227, 5-Chloro-2-(2,4-difluoro-phenylamino)-3,4-difluoro-N-(2-hydroxy-3-methoxy-propoxy)-benzamide] | – | – | – | 24.2 | % Inhibition @ 10 μM ([1]; 10 μM, ERK phosphorylation in C26 cells): 63%
6 | Cc1cc(I)ccc1Nc1c(C(=O)NOCC(O)CN2CCOCC2)cc(F)c(F)c1F (centres unmarked) [Example 146, 3,4,5-Trifluoro-N-(2-hydroxy-3-morpholin-4-yl-propoxy)-2-(4-iodo-2-methyl-phenylamino)-benzamide] | – | – | 0 | 40.5 | –
7 | O=C(NOCC1(CO)CC1)c1ccc(F)c(F)c1Nc1ccc(I)cc1F [Example 218, 3,4-Difluoro-2-(2-fluoro-4-iodo-phenylamino)-N-(1-hydroxymethyl-cyclopropylmethoxy)-benzamide] | – | – | 87 | 96.9 | –
8 | COCC(O)CONC(=O)c1ccc(F)c(F)c1Nc1ccc(Br)cc1F (centres unmarked) [Example 228, 2-(4-Bromo-2-fluoro-phenylamino)-3,4-difluoro-N-(2-hydroxy-3-methoxy-propoxy)-benzamide] | – | – | 48.6 | 92.4 | –
9 | O=C(NOCC(O)CN1CCOCC1)c1cc(F)c(F)cc1Nc1ccc(I)cc1F (centres unmarked) [Example 153, 4,5-Difluoro-2-(2-fluoro-4-iodo-phenylamino)-N-(2-hydroxy-3-morpholin-4-yl-propoxy)-benzamide] | – | – | 13.9 | 89.5 | –
10 | Cc1cc(I)ccc1Nc1c(C(=O)NOCC(C)(C)O)cc(Cl)c(F)c1F [Example 176, 5-Chloro-3,4-difluoro-N-(2-hydroxy-2-methyl-propoxy)-2-(4-iodo-2-methyl-phenylamino)-benzamide] | – | – | 14.1 | 87.7 | –
11 | Cc1cc(I)ccc1Nc1c(C(=O)NOCC(O)CN2CCOCC2)ccc(F)c1F (centres unmarked) [Example 148, 3,4-Difluoro-N-(2-hydroxy-3-morpholin-4-yl-propoxy)-2-(4-iodo-2-methyl-phenylamino)-benzamide] | – | 230 | – | – | –
12 | Cc1cc(I)ccc1Nc1c(C(=O)NOCC(O)CN2CCOCC2)cc(Cl)c(F)c1F (centres unmarked) [Example 150, 5-Chloro-3,4-difluoro-N-(2-hydroxy-3-morpholin-4-yl-propoxy)-2-(4-iodo-2-methyl-phenylamino)-benzamide] | – | – | 49 | 99.9 | –

More lines, main results first:

Row | melting point [°C] | IC50 [1] [nM] | SMILES | % Inhibition @ 0.1 μM [1, 2] [%] | % Inhibition @ 1 μM [1, 2] [%] | also measured
13 | 175 to 176 | 47 | Cc1cc(I)ccc1Nc1c(C(=O)NOC(C)(C)CO)ccc(F)c1F [Example 63, 3,4-Difluoro-N-(2-hydroxy-1,1-dimethyl-ethoxy)-2-(4-iodo-2-methyl-phenylamino)-benzamide] | – | – | –
14 | 152.5 to 153.1 | 42 | O=C(NOC[C@@H]1C[C@H]1CO)c1cc(Cl)c(F)c(F)c1Nc1ccc(I)cc1F (relative stereo) [Example 75, 5-Chloro-3,4-difluoro-2-(2-fluoro-4-iodo-phenylamino)-N-[trans-(2-hydroxymethyl-cyclopropylmethoxy)]-benzamide] | – | – | –
15 | 114 to 115 | > 1000 | CC1(C)OCC(CONC(=O)c2ccc(F)c(F)c2Nc2ccc(I)cc2F)O1 (centres unmarked) [Example 38, N-(2,2-Dimethyl-[1,3]dioxolan-4-ylmethoxy)-3,4-difluoro-2-(2-fluoro-4-iodo-phenylamino)-benzamide] | – | – | –
16 | 189.6 to 190.6 | – | O=C(NOCCO)c1cc(F)c(F)cc1Nc1ccc(I)cc1F [Example 18, 4,5-Difluoro-2-(2-fluoro-4-iodo-phenylamino)-N-(2-hydroxy-ethoxy)-benzamide] | – | – | –
17 | 143.5 to 144.5 | – | O=C(NOCC(O)CO)c1cc(Br)c(F)c(F)c1Nc1ccccc1F (centres unmarked) [Example 84, 5-Bromo-N-(2,3-dihydroxy-propoxy)-3,4-difluoro-2-(2-fluoro-phenylamino)-benzamide] | – | – | –
18 | 141.5 to 143 | – | C=COCCONC(=O)c1ccc(F)c(F)c1Nc1ccc(I)cc1Cl [Example 56, 2-(2-Chloro-4-iodo-phenylamino)-3,4-difluoro-N-(2-vinyloxy-ethoxy)-benzamide] | – | – | –
19 | 119 to 120 | – | C=COCCONC(=O)c1cc(Cl)c(F)c(F)c1Nc1ccc(I)cc1F [Example 60, 5-Chloro-3,4-difluoro-2-(2-fluoro-4-iodo-phenylamino)-N-(2-vinyloxy-ethoxy)-benzamide] | – | – | –
20 | 120 to 121 | – | O=C(NOCCCO)c1cc(Br)c(F)c(F)c1Nc1ccc(I)cc1Cl [Example 31, 5-Bromo-2-(2-chloro-4-iodo-phenylamino)-3,4-difluoro-N-(3-hydroxy-propoxy)-benzamide] | – | – | –
21 | – | 487 | Cc1cc(I)ccc1Nc1c(C(=O)NOCCCO)ccc(F)c1F [Example 103, 3,4-Difluoro-N-(3-hydroxy-propoxy)-2-(4-iodo-2-methyl-phenylamino)-benzamide] | – | – | –
22 | – | 100 | COCCONC(=O)c1cc(Br)c(F)c(F)c1Nc1ccc(I)cc1C [Example 137, 5-Bromo-3,4-difluoro-2-(4-iodo-2-methyl-phenylamino)-N-(2-methoxy-ethoxy)-benzamide] | – | – | –
23 | – | 2 | O=C(NOCCO)c1ccc(F)cc1Nc1ccc(I)cc1Cl [Example 4, 2-(2-Chloro-4-iodo-phenylamino)-4-fluoro-N-(2-hydroxy-ethoxy)-benzamide] | – | – | –
24 | – | 19 | O=C(NOCC(O)CO)c1ccc(F)c(F)c1Nc1ccc(I)cc1Cl (centres unmarked) [Example 86, 2-(2-Chloro-4-iodo-phenylamino)-N-(2,3-dihydroxy-propoxy)-3,4-difluoro-benzamide] | – | – | –
25 | – | 140 | COCCOCCONC(=O)c1cc(Br)c(F)c(F)c1Nc1ccc(I)cc1C [Example 206, 5-Bromo-3,4-difluoro-2-(4-iodo-2-methyl-phenylamino)-N-[2-(2-methoxy-ethoxy)-ethoxy]-benzamide] | – | – | –
26 | – | 250 | COCCONC(=O)c1ccc(F)c(F)c1Nc1ccc(I)cc1C [Example 136, 3,4-Difluoro-2-(4-iodo-2-methyl-phenylamino)-N-(2-methoxy-ethoxy)-benzamide] | – | – | –
27 | – | 370 | COCCONC(=O)c1ccc(F)c(F)c1Nc1ccc(I)cc1Cl [Example 134, 2-(2-Chloro-4-iodo-phenylamino)-3,4-difluoro-N-(2-methoxy-ethoxy)-benzamide] | – | – | –

Reference: US6960614B2, “Oxygenated esters of 4-lodo phenylamino benzhydroxamic acids” (Warner-Lambert Company, priority 2000, dated 2005)
